A short description of assay [1]: Kinetics of the coupling reaction of iminosydnones with BCN (HPLC monitoring). The assay is classed as physicochemical. The following applies: 100 μM iminosydnone, 150 μM BCN, PBS 0.1M (pH 7.4) containing 10% DMSO. The method, then:
(§1) The kinetics of the coupling reaction of different iminosydnones with two cyclic alkynes was studied, according to the following scheme.
(§2) Reactions of iminosydnones with BCN (Bicyclononyne) or TMTH were carried out in PBS/DMSO (9:1) mixtures at 100 μM concentration of sydnones and 150 μM concentration of BCN or TMTH using the following procedure:
(§3) To 900 μL of phosphate buffered saline (PBS, 100 mM) was added 87.5 μL of DMSO, 10 μL of the solution of benzamide (internal standard, 100 mM in DMSO), 1 μL of the solution of iminosydnone (100 mM in DMSO) and 1.5 μL of the solution of BCN or TMTH (100 mM in DMSO). The reaction mixture was injected in HPLC every 30 min and the conversion was followed by measuring the normalized sydnone peak area.
(§4) Second order reaction rate was determined by plotting ln([A]/[B])/([A]−[B]) versus time and analyzing by linear regression (Equation). Second order rate constant corresponds to the determined slope.
(§5) Equation. [A]—concentration of iminosydnones (M); [B]—concentration of BCN (M); t—reaction time (sec); k—reaction rate (M^−1·sec^−1)

Assay [2] in a line: Kinetics of the coupling reaction of iminosydnones with TMTH (HPLC monitoring). The class given is physicochemical. The following applies: 100 μM iminosydnone, 150 μM TMTH, PBS 0.1M (pH 7.4) containing 10% DMSO. The method, then: as §1, §2, §3, §4, §5

Consider `[NH-]c1c[n+](-c2ccccc2)no1` [Im1], for which the “K (BCN)” value in assay [1] is given as “no reaction”.

Turning to `CC(=O)[N-]c1c[n+](-c2ccccc2)no1` [Im2], in assay [1], the “K (BCN)” value was found to be 0.002 M⁻¹ s⁻¹. Besides, in assay [2], the “K (TMTH)” value was 2.2 M⁻¹ s⁻¹.

For the molecule `Cc1ccc(-[n+]2cc([N-]C(=O)Cc3ccccc3)on2)cc1` [Im3], the “K (BCN)” value in assay [1] was 0.004 M⁻¹ s⁻¹.

Regarding `Cc1ccc(-[n+]2cc([N-]C(=O)CCc3ccccc3)on2)cc1` [Im4], the “K (BCN)” value in assay [1] was 0.034 M⁻¹ s⁻¹.

On to `Cc1ccc(NC(=O)[N-]c2c[n+](-c3ccccc3)no2)cc1` [Im5], for which the “K (BCN)” value in assay [1] worked out at 0.069 M⁻¹ s⁻¹. In addition, the “K (TMTH)” value in assay [2] came to 43.1 M⁻¹ s⁻¹.

Turning to `Cc1ccc(NC(=O)[N-]c2c[n+](-c3ccc(O)cc3)no2)cc1` [Im6], in assay [1], the “K (BCN)” value came out at 0.008 M⁻¹ s⁻¹. For the same molecule, the “K (TMTH)” value in assay [2] turned out to be 4.1 M⁻¹ s⁻¹.

Consider `Cc1ccc(NC(=O)[N-]c2c[n+](-c3ccc(C(=O)O)cc3)no2)cc1` [Im7], for which the “K (BCN)” value in assay [1] came to 0.108 M⁻¹ s⁻¹. Further, in assay [2], the “K (TMTH)” value stood at 61.2 M⁻¹ s⁻¹.

For `CCOC(=O)c1ccc(NC(=O)[N-]c2c[n+](-c3ccc(O)cc3)no2)cc1` [Im8], the “K (BCN)” value in assay [1] worked out at 0.008 M⁻¹ s⁻¹. Besides, in assay [2], the “K (TMTH)” value was found to be 2.5 M⁻¹ s⁻¹.

For the molecule `Cc1ccc(-[n+]2cc([N-]C(=O)NCc3ccccc3)on2)cc1` [Im9], the “K (BCN)” value in assay [1] was found to be 0.004 M⁻¹ s⁻¹.

Regarding `Cc1ccc(-[n+]2noc([N-]C(=O)NCc3ccccc3)c2Br)cc1` [Im10], in assay [1], the “K (BCN)” value stood at 0.060 M⁻¹ s⁻¹.

Take `Cc1ccc(-[n+]2cc([N-]C(=O)OCc3ccccc3)on2)cc1` [Im11]: the “K (BCN)” value in assay [1] worked out at 0.026 M⁻¹ s⁻¹.

For `Cc1ccc(-[n+]2noc([N-]C(=O)OCc3ccccc3)c2Br)cc1` [Im12], in assay [1], the “K (BCN)” value worked out at 0.150 M⁻¹ s⁻¹.

In the case of `N#CC#Cc1ccc(NC(=O)[N-]c2c[n+](-c3ccc(C(=O)O)cc3)no2)cc1` [Im14, (3-(4-carboxyphenyl)-1,2,3-oxadiazol-3-ium-5-yl)((4-(cyanoethynyl)phenyl)carbamoyl)amide], the “K (BCN)” value in assay [1] stood at 0.132 M⁻¹ s⁻¹.
